According to paper PMC10285409, “Identification and validation of G protein-coupled receptors modulating flow-dependent signaling pathways in vascular endothelial cells” (Frontiers in Molecular Biosciences, 2023):

Target: T1, LGR4 (Homo sapiens, UniProt Q9BXB1)
T1 sequence (Q9BXB1 25-951): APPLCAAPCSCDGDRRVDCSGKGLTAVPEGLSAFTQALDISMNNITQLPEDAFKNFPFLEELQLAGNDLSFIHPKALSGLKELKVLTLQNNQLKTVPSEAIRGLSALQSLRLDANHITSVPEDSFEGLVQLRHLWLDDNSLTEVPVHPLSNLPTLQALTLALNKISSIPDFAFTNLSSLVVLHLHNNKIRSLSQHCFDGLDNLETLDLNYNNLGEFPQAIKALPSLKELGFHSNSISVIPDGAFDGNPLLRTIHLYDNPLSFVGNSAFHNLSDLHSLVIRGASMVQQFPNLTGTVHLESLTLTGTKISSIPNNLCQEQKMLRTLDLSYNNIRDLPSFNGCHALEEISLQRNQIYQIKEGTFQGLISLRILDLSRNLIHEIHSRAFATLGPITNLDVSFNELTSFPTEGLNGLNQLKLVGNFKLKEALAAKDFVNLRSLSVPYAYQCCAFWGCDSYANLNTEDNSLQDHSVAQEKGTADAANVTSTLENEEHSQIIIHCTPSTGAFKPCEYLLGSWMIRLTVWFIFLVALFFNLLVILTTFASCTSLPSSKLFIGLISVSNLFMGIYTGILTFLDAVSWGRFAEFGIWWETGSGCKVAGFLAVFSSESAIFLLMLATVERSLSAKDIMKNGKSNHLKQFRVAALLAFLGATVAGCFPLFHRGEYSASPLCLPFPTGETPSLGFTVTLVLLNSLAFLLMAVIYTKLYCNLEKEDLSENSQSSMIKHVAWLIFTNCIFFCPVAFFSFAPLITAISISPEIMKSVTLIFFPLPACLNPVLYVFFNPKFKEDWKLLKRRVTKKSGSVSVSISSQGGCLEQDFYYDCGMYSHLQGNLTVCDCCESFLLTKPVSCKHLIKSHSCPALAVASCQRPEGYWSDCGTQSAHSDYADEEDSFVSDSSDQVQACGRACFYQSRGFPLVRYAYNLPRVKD
Assay: beta-arrestin recruitment enzyme complementation in CHO-K1 LGR4 cells; KLF2-luciferase activity lost on LGR4 knockdown
Type: cell-based

Row | EC50 | Structure (SMILES)
1 | 5 µM | CCCCOC(=O)c1c(Cl)nc(CCCC)n1Cc1cccc2c1ccn2-c1ccccc1-c1nn[nH]n1 [Compound 2]
2 | 27 µM | CCCCN(Cc1ccc(-c2ccccc2-c2nnn[nH]2)cc1)C(=O)NCc1ccc(Cl)cc1 [Compound 1]
